Test results published in patent US9206200B2, “N-linked lactam M1 receptor positive allosteric mogulators” (Merck Sharp & Dohme Corp., priority 2011, dated 2015).
Where two headings read alike, the source gives them in different places.

Target: T1, acetylcholine muscarinic M1 receptor (Homo sapiens, UniProt P11229)
T1 construct: expressed in transfected cells; host or cells: CHOnfat cells (CHO cells with an NFAT reporter) expressing hM1, kept under Geneticin selection
T1 sequence (P11229 1-460): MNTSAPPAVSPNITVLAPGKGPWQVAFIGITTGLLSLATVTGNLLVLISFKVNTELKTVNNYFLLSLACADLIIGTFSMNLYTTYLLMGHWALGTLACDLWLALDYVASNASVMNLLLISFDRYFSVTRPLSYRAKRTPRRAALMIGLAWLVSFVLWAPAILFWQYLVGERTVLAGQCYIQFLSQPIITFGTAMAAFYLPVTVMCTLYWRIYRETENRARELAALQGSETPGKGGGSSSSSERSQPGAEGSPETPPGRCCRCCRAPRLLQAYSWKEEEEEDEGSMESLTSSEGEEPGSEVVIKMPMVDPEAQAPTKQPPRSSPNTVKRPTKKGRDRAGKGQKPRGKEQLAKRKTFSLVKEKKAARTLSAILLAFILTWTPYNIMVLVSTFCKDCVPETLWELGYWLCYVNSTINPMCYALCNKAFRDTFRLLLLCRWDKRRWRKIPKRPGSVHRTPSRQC
Assay: muscarinic FLIPR assay: intracellular calcium in CHOnfat/hM1 cells, potentiation of EC20 acetylcholine
Assay type: cell-based
Details: CHOnfat/hM1 cells, FLIPR, EC20 acetylcholine (3 nM final)
In short: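 CHOnfat cells stably expressing human M1, Fluo-4AM-loaded, in HBSS with 20 mM HEPES, 2.5 mM probenecid, 1% BSA. Compounds preincubated 4 min (printed "4 mM") before an EC20 acetylcholine challenge (3 nM final). FLIPR intracellular Ca²⁺ signal compared with 3 nM acetylcholine alone to detect potentiation.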

| EC50 (Table 1, read-out: M1 Pot.) | EC50 (Table 2, read-out: M1 Pot.) | Compound | other results |
| --- | --- | --- | --- |
| 1370 nM |  | O=C1c2cc(CN3CCc4ccccc4C3c3ccncc3)c3ccccc3c2CN1c1ccccc1F (stereo not drawn) [Example 65, 2-(2-fluorophenyl)-5-{[1-(pyridin-4-yl)-3,4-dihydroisoquinolin-2(1H)-yl]methyl}-1,2-dihydro-3H-benzo[e]isoindol-3-one] |  |
| 273 nM |  | Cn1cc(N2CCN(Cc3cc4c(c5ccccc35)CN(c3ccccc3F)C4=O)CC2)cn1 [Example 66, 2-(2-fluorophenyl)-5-{[4-(1-methyl-1H-pyrazol-4-yl)piperazin-1-yl]methyl}-1,2-dihydro-3H-benzo[e]isoindol-3-one] |  |
| 67 nM |  | O=C1c2cc(CN3CCN(c4ccc(F)cc4)CC3)c3ccccc3c2CN1[C@H]1CCCC[C@@H]1O [Example 67, 5-{[4-(4-fluorophenyl)piperazin-1-yl]methyl}-2-[(1S,2S)-2-hydroxycyclohexyl]-1,2-dihydro-3H-benzo[e]isoindol-3-one] |  |
| 47 nM |  | CS(=O)(=O)c1ccc(N2CCN(Cc3cc4c(c5ccccc35)CN([C@H]3CCCC[C@@H]3O)C4=O)CC2)cc1 [Example 68, 2-[(1S,2S)-2-hydroxycyclohexyl]-5-({4-[4-(methylsulfonyl)phenyl]piperazin-1-yl}methyl)-1,2-dihydro-3H-benzo[e]isoindol-3-one] |  |
| 49 nM |  | COc1ccc(N2CCN(Cc3cc4c(c5ccccc35)CN([C@H]3CCCC[C@@H]3O)C4=O)CC2)cc1 [Example 69, 2-[(1S,2S)-2-hydroxycyclohexyl]-5-{[4-(4-methoxyphenyl)piperazin-1-yl]methyl}-1,2-dihydro-3H-benzo[e]isoindol-3-one] |  |
| 150 nM |  | COc1ccc(N2CCN(Cc3cc4c(c5ccccc35)CN([C@H]3CCCC[C@@H]3O)C4=O)C(C)C2)cc1 (stereo partly drawn) [Example 70, 2-[(1S,2S)-2-hydroxycyclohexyl] 5-{[4-(4-methoxyphenyl)-2-methylpiperazin-1-yl]methyl}-1,2-dihydro-3H-benzo[e]isoindol-3-one] |  |
| 315 nM |  | COc1ccc(N2CC3CC2CN3Cc2cc3c(c4ccccc24)CN([C@H]2CCCC[C@@H]2O)C3=O)cc1 (stereo partly drawn) [Example 71] |  |
| 72 nM |  | O=C1c2cc(CN3CCN(c4ccccc4)CC3)c3ccccc3c2CN1[C@H]1CCCC[C@@H]1O [Example 72, 2-[(1S,2S)-2-hydroxycyclohexyl]-5-[(4-phenylpiperazin-1-yl)methyl]-1,2-dihydro-3H-benzo[e]isoindol-3-one] |  |
| 198 nM |  | CC1c2c(cc(CN3CCN(c4ccccc4)CC3)c3ccccc23)C(=O)N1[C@@H]1CCCC[C@@H]1O (stereo partly drawn) [Example 73, 2-[(1R,2S)-2-hydroxycyclohexyl]-1-methyl-5-[(4-phenylpiperazin-1-yl)methyl]-1,2-dihydro-3H-benzo[e]isoindol-3-one] |  |
| 46 nM |  | O=C1c2cc(CN3CCN(c4ccccn4)CC3)c3ccccc3c2CN1[C@H]1CCCC[C@@H]1O [Example 74, 2-[(1S,2S)-2-hydroxycyclohexyl]-5-[(4-pyridin-2-ylpiperazin-1-yl)methyl]-1,2-dihydro-3H-benzo[e]isoindol-3-one] |  |
| 78 nM |  | O=C1c2cc(CN3CCN(c4ccccn4)CC3)c3ccccc3c2CN1c1ccccc1F [Example 75, 2-(2-fluorophenyl)-5-{[4-(pyridin-2-yl)piperazin-1-yl]methyl}-1,2-dihydro-3H-benzo[e]isoindol-3-one] |  |
| 37 nM |  | O=C1c2cc(CN3CCN(c4cccnc4)CC3)c3ccccc3c2CN1[C@H]1CCCC[C@@H]1O [Example 76, 2-[(1S,2S)-2-hydroxycyclohexyl]-5-[(4-pyridin-3-ylpiperazin-1-yl)methyl]-1,2-dihydro-3H-benzo[e]isoindol-3-one] |  |
| 213 nM |  | O=C1c2cc(CN3CCN(c4ccncc4)CC3)c3ccccc3c2CN1[C@H]1CCCC[C@@H]1O [Example 77, 2-[(1S,2S)-2-hydroxycyclohexyl]-5-[(4-pyridin-4-ylpiperazin-1-yl)methyl]-1,2-dihydro-3H-benzo[e]isoindol-3-one] |  |
| 370 nM |  | CC1CN(Cc2cc3c(c4ccccc24)CN([C@H]2CCCC[C@@H]2O)C3=O)CCN1c1ccccc1 (stereo partly drawn) [Example 78, 2-[(1S,2S)-2-hydroxycyclohexyl]-5-[(3-methyl-4-phenylpiperazin-1-yl)methyl]-1,2-dihydro-3H-benzo[e]isoindol-3-one] |  |
| 1620 nM |  | Cn1cc(N2CCN(Cc3cc4c(c5ccccc35)CN([C@H]3CCCC[C@@H]3O)C4=O)CC2)cn1 [Example 80, 2-[(1S,2S)-2-hydroxycyclohexyl]-5-{[4-(1-methyl-1H-pyrazol-4-yl)piperazin-1-yl]methyl}-1,2-dihydro-3H-benzo[e]isoindol-3-one] |  |
| 496 nM |  | Cn1cc(N2CCN(Cc3cc4c(c5ccccc35)CN([C@@H]3CCCC[C@H]3O)C4=O)CC2)cn1 [Example 81, 2-[(1R,2R)-2-hydroxycyclohexyl]-5-{[4-(1-methyl-1H-pyrazol-4-yl)piperazin-1-yl]methyl}-1,2-dihydro-3H-benzo[e]isoindol-3-one] |  |
| 1590 nM |  | Cn1cc(N2CCN(Cc3cc4c(c5ccccc35)CN(C3CCOCC3)C4=O)CC2)cn1 [Example 82, 5-{[4-(1-methyl-1H-pyrazol-4-yl)piperazin-1-yl]methyl}-2-(tetrahydro-2H-pyran-4-yl)-1,2-dihydro-3H-benzo[e]isoindol-3-one] |  |
| 3870 nM |  | Cn1cc(N2CCN(Cc3cc4c(c5ccccc35)CN(C3CCCOC3)C4=O)CC2)cn1 (stereo not drawn) [Example 83, 5-{[4-(1-methyl-1H-pyrazol-4-yl)piperazin-1-yl]methyl}-2-(tetrahydro-2H-pyran-3-yl)-1,2-dihydro-3H-benzo[e]isoindol-3-one] |  |
| 3270 nM |  | O=C1c2cc(CN3CCN(c4cc5ccccc5cn4)CC3)c3ccccc3c2CN1c1ccccc1F [Example 84, 2-(2-fluorophenyl)-5-[(4-isoquinolin-3-ylpiperazin-1-yl)methyl]-1,2-dihydro-3H-benzo[e]isoindol-3-one] |  |
| 1140 nM |  | O=C1c2cc(CN3CCN(c4ccc5ncsc5c4)CC3)c3ccccc3c2CN1c1ccccc1F [Example 85, 5-{[4-(1,3-benzothiazol-6-yl)piperazin-1-yl]methyl}-2-(2-fluorophenyl)-1,2-dihydro-3H-benzo[e]isoindol-3-one] |  |
|  | 2900 nM | O=C1c2cc(CN3CCCCC3)c3cccnc3c2CN1[C@H]1CCCC[C@@H]1O [Example 86, 8-[(1S,2S)-2-hydroxycyclohexyl]-5-(piperidin-1-ylmethyl)-8,9-dihydro-7H-pyrrolo[3,4-h]quinolin-7-one] |  |
|  |  | CC1CCN(Cc2cc3c(c4ncccc24)CN([C@H]2CCCC[C@@H]2O)C3=O)CC1 [Example 87, 8-[(1S,2S)-2-hydroxycyclohexyl]-5-[(4-methylpiperidin-1-yl)methyl]-8,9-dihydro-1H-pyrrolo[3,4-h]quinolin-7-one] | EC50 (M1 Pot., Table 2): 200 nM |
|  | 4000 nM | CCN(CC)Cc1cc2c(c3ncccc13)CN(C1CCCCC1O)C2=O (stereo not drawn) [Example 88, 5-[(diethylamino)methyl]-8-(2-hydroxycyclohexyl)-8,9-dihydro-7H-pyrrolo[3,4-h]quinolin-7-one] |  |
|  | 290 nM | O=C1c2cc(CN3CCC(O)CC3)c3cccnc3c2CN1C1CCCCC1O (stereo not drawn) [Example 89, 8-(2-hydroxycyclohexyl)-5-[(4-hydroxypiperidin-1-yl)methyl]-8,9-dihydro-7H-pyrrolo[3,4-h]quinolin-7-one] |  |
|  | 1200 nM | O=C1c2cc(CN3CCC(C4CC4)CC3)c3cccnc3c2CN1C1CCCCC1O (stereo not drawn) [Example 90, 5-[(4-cyclopropylpiperidin-1-yl)methyl]-8-(2-hydroxycyclohexyl)-8,9-dihydro-7H-pyrrolo[3,4-h]quinolin-7-one] |  |
|  | 88 nM | O=C1c2cc(CN3CCC(F)CC3)c3cccnc3c2CN1C1CCCCC1O (stereo not drawn) [Example 91, 5-[(4-fluoropiperidin-1-yl)methyl]-8-(2-hydroxycyclohexyl)-8,9-dihydro-7H-pyrrolo[3,4-h]quinolin-7-one] |  |
|  | 70 nM | CC1c2c(cc(CN3CCC(F)CC3)c3cccnc23)C(=O)N1[C@H]1CCCC[C@@H]1O (stereo partly drawn) [Example 93, 5-[(4-fluoropiperidin-1-yl)methyl]-8-[(1S,2S)-2-hydroxycyclohexyl]-9-methyl-8,9-dihydro-7H-pyrrolo[3,4-h]quinolin-7-one] |  |

| Compound | EC50 (Table 1, read-out: M1 Pot.) | EC50 (Table 2, read-out: M1 Pot.) | other results |
| --- | --- | --- | --- |
| N#CC1CCN(Cc2cc3c(c4ncccc24)CN([C@H]2CCCC[C@@H]2O)C3=O)CC1 [Example 92, 1-({8-[(1S,2S)-2-hydroxycyclohexyl]-7-oxo-8,9-dihydro-7H-pyrrolo[3,4-h]quinolin-5-yl}methyl)piperidine-4-carbonitrile] |  | 72 nM |  |
| N#CC1CCN(Cc2cc3c(c4ncccc24)CN([C@H]2CCCC[C@@H]2O)C3=O)CC1 [Example 94, 1-({8-[(1S,2S)-2-hydroxycyclohexyl]-7-oxo-8,9-dihydro-7H-pyrrolo[3,4-h]quinolin-5-yl}methyl)piperidine-4-carbonitrile] |  | 51 nM |  |
| O=C1c2cc(CN3CCC4(CC3)COc3ccccc34)c3cccnc3c2CN1C1CCCCC1O (stereo not drawn) [Example 95, 8-(2-hydroxycyclohexyl)-5-(1′H-spiro[1-benzofuran-3,4′-piperidin]-1′-ylmethyl)-8,9-dihydro-7H-pyrrolo[3,4-h]quinolin-7-one] |  | 290 nM |  |
